Measurements from US20090068286A1, “METHOD OF TREATING CANCER BY ADMINISTRATION OF 5-SUBSTITUTED NUCLEOSIDES” (RESprotect, GmbH, priority 2007, published 2009).
“Also recorded” adds a separate entry of the source.

Legend:
[1] = test system: Yoshida AH13r hepatoma cells; assay: Growth of s.c. Yoshida AH13r hepatoma tumors in SD-rats; type: in vivo, rat
Method: Ten SD-rats per treatment group were given a single s.c. injection of ascites Yoshida AH13r hepatoma cells. Five to 7 days after tumor application, the growth of the resulting tumors (at the injection site) was suppressed by i.p. treatment of the animals with cisplatin, doxorubicin or cyclophosphamide, or by additional oral treatment with 15 mg/kg BVDU (15 times within 3 weeks).

AH13r tumor cells = assay: Hoechst 33258/propidium iodide (Hopi) double coloration for apoptosis; type: cell-based, rat; details: co-treatment of cytostatic with BVDU
From the text: The indication that the reduction in cell number is based on apoptosis, was detected by means of Hoechst 33258/propidium iodide (Hopi) double coloration.

AH13r sarcoma cells = assay: Number of AH13r cells under cytostatic ± BVDU and in the recovery phase; type: cell-based, rat
From the text: AH13r cells were subjected to increasing doses of the cytostatic mitomycin C (MMC). […] This inhibitory effect was maintained even after discontinuation of the cytostatic in the next cycle, in the so-called recovery phase. The cells without MMC and BVDU continued to grow without inhibition.

[2] = test system: uridine phosphorylase (UPase); assay: UPase expression in human pancreas carcinoma cell lines; type: cell-based
From the text: BVDU downregulates uridine phosphorylase (UPase) expression in BxPC-3 and AsPC-1 human pancreas carcinoma cell lines. […] In squamous cell carcinoma, high staining of UPase in primary tumors was frequently associated with the presence of lymph node metastases and lower overall survival.

[3] = test system: advanced pancreatic adenocarcinoma; assay: Pilot study GEM + CIS + BVDU in patients; type: in vivo, human
Method: Pilot study: 13 Patients (mean age 61, 69% males, 4 stage III, 9 stage IV) with advanced pancreatic adenocarcinoma were treated with i.v. 1.000 mg/m^2 GEM over 30 min on days 1 and 15 of a 28-day schedule. CIS was administered at 50 mg/m^2. BVDU treatment took place on the same day and for four days after chemotherapy in the recovery phase (each four 125 mg tablets per day, resulting in a total dose of 6.000 mg per treatment cycle). As control, data were used of patients of a preceding study which were treated with GEM and CIS, but not with BVDU. With the intention to obtain a control group with a similar proportion of stage IV and stage III diseases as the 13 patients of the pilot study, […] (6 stage III, 15 stage IV) of 96 patients were selected from the Heinemann study by random generator.
Evaluation: Efficacy was measured by overall survival, objective tumor response rate (ORR, according to WHO criteria in the pilot study and RECIST criteria in the dose finding study) and time to progression (TTP) from the first administration onwards. Serum CA19-9 levels were measured at the start and end of each treatment cycle. Safety was evaluated according to NCI-CTC scale.
Evaluation of Progression: Patients were evaluated every five weeks.
Statistical Methods: Survival curves were generated using the Kaplan-Meier method; survival distributions were compared by the log-rank test (Cox-Mantel), and median survival by the Box and Whisker plot.

JUN-D = assay: Western Blot analysis of survival pathways: JUN-D; type: cell-based
Method: Different “survival pathways” were tested by means of Western Blot analysis. The analyses were implemented according to standard methods, as is described in Sambrook et al., 2001, Molecular Cloning (3rd ed.). Antibody dilutions: P-STAT3 (cell signaling) 1: 500, JUN-D (Santa Cruz, Calif.) 1: 1,000.
The densitometrically determined content of oncogene proteins JUN-D and STAT3 was reduced by a quarter or two thirds after DOX treatment in the recovery phase (r=recovery phase). In the “recovery” only BVDU is given, no cytostatic.

[4] = 13 patients, BVDU co-treatment with GEM + CIS
[5] = BVDU co-treatment with GEM + CIS

With `O=c1[nH]c(=O)n([C@H]2C[C@H](O)[C@@H](CO)O2)cc1/C=C/Br` [BVDU, (E)-5-(2-bromovinyl)-2′-deoxyuridine] the “Effect on tumor size” value ([1]; BVDU 50 mg/kg given only on the same day as cisplatin, no recovery phase) was “only weak”, the “Effect on tumor size” value ([1]; BVDU 15 times alone in the recovery phase, one time together with cyclophosphamide) was “strong effect” and the “Effect on tumor size” value ([1]; BVDU alone or in combination with DOX, recovery phase 6× one day) was “strong effect”. For the same compound, the “Influence on the growth of rat tumors” value ([1]; BVDU given alone, oral) was “no influence”, the “Effect on tumor size” value ([1]; BVDU with CIS, recovery phase 4×3 or 2 days) was “very strong” and the “Apoptosis (HOPI double coloration)” value (AH13r tumor cells) was “promotes apoptosis”. For the same compound, the “Toxic effect on AH13r cells” value (AH13r sarcoma cells; BVDU given alone) was “no toxic effect”, the “Cell growth in the recovery phase” value (AH13r sarcoma cells; after MMC+BVDU, cytostatic discontinued, cells continued to receive BVDU) was “greatly inhibited in their growth” and the UPase expression ([2]; AsPC-1 human pancreas carcinoma cell line) was “downregulates”. For the same compound, the UPase expression ([2]; BxPC-3 human pancreas carcinoma cell line) was “downregulates”, the Median survival [3, 4] was 447 days and the “Median time to progression (TTP)” value [3, 4] was 280 days. For the same compound, the “Remissions / response rate” value ([3]; 13 patients, WHO criteria, BVDU co-treatment with GEM + CIS) was 33%, the “Patients who live more than two years” value [3, 5] was 23% and the “Patients who lived or have lived longer than one year” value [3, 5] was 77%. For the same compound, the “Number of patients living longer than one year after first treatment” value ([3]; BVDU-treatment group) was “Ten of 13”, the “Number of patients living more than two years” value ([3]; BVDU-treatment group) was “three” and the “Inhibition of MMC induced JUN-D overexpression” value (JUN-D; BVDU given in the “recovery” after MMC) was “complete inhibition”. The “Reduction of JUN-D protein content (densitometry)” value (JUN-D; after DOX treatment, recovery phase: only BVDU given, no cytostatic) was “approximately one quarter; also recorded: a quarter”.
